Data set [1] has as its system PGE2. The data set can be described thus: Fibroblast PGE2 assay, PMA-induced. Particulars: human skin fibroblasts, N=4. The class given is cell-based. The procedure: Intracellular adhesion molecules (ICAM) and PEG2 production by human skin fibroblasts can be induced by the inflammatory stimulus PMA (phorbal myristate acetate). PMA represents an external stressor which induces oxidative stress and inflammatory responses in cells. This model is used to model inflammation in vivo.
Primary human foreskin fibroblasts at passage 2 (P2) were seeded into 96-well plates at 10000 cells/well and maintained for 24 hours in an atmosphere of 5% carbon dioxide in Dulbeccos Modified Eagles Medium (DMEM) supplemented with 10% foetal calf serum. […] Phorbal myristate acetate (PMA) (Sigma) was added to the media and the cells incubated for a further 24 hours. […] The fibroblasts/media were then analysed as described below immediately or snap frozen in liquid nitrogen and stored at -70°C for future analysis. The cells were then counted and data from the dot-blot analysis subsequently standardised to cell number.
Prostaglandin E2 (PGE2) assay: Volumes of 50 µl culture medium were taken for PGE2 assay after gently shaking the culture plate. PGE2 levels in the medium were determined with a Biotrak PGE2 immunoassay kit (Amersham, UK). The assay is based on the competition between unlabelled PGE2 in the sample and a fixed quantity of horseradish peroxidase labelled PGE2 for a limited amount of fixed PGE2 specific antibody. Concentrations of unlabelled sample PGE2 are determined according to a standard curve which was obtained at the same time.

Data set [2] deals with Keratinocytes. The data set can be described thus: Keratinocyte SDS viability assay (Neutral Red method). The class given is cell-based. Particulars: 24 hours, n=8. The protocol:
(§1) After incubating for 24 hours the medium was removed and the viability determined by the Neutral Red method.

Data set [3] concerns PGE2. The data set can be described thus: Keratinocyte PGE2 assay (basal release, enzyme-linked immunoassay). The class given is cell-based. The following applies: 24 hours, unstimulated keratinocytes, n=4, Control 197.9. The protocol: This was then replaced with KGM without hydrocortisone for 24-48 hours. No petroselinic acid was added to the control cells. […] At the end of the incubation the medium was harvested and assayed for the basal release of the pro-inflammatory PGE2 by enzyme-linked immuno assay using a commercial PGE2 kit (Amersham, Buckinghamshire, England).
The anti-inflammatory potential of the test compounds were assessed by the ability of the compounds to reduce the basal levels of secreted PGE2 as compared to the control. Statistical significance was determined using the Student's t-test.

In data set [4] the test system is B16-F1 mouse melanoma cells. The data set can be described thus: Pigmentation assay (melanin in media, absorbance at 530 nm). The class given is cell-based. Particulars: 72 hours, n=4, read-out: Melanin in Media % Control. The procedure:
(§2) • * Cell maintenance B16-F1 mouse melanoma cells (American Type Culture Collection, Maryland, USA) were maintained in 75 cm^2 culture flasks in RPMI 1640 medium (ICN-Flow, cat. no. 12-60-54) supplemented with L-glutamine (4 mM) and 10% foetal bovine serum (FBS) at 37°C in a water saturated, 5% CO2 in air atmosphere. Cells were passaged twice weekly. • * Pigmentation Assay Subconfluent B16 cells were seeded in 96 well microtiter plates at a density of 5000 cells/well and cultured overnight in DMEM (Life Technologies, NY) containing 10% foetal bovine serum and 1% penicillin/streptomycin without phenol red at 37°C under 5% CO2. After 24 hours, the media was replaced with fresh media containing the test materials or vehicle controls. Cells were incubated for 72 hours at which time melanin was visible in the control wells. Next, the melanin containing media from each well was transferred to a clean 96 well plate and quantified by reading the absorbance at 530 nm using a microplate spectrophotometer (Dynatech MR5000) and correcting for the baseline absorption of fresh medium. As the corrected absorption is proportional to the melanin concentration the percentage pigmentation for a skin lightening test substance can be calculated as: % pigmentation = (OD530 test/OD530 ref) x 100% [formula] where OD530 test and OD530 ref indicate the average corrected absorption of the medium from the wells with the test substance and that of the medium from the wells without the test substance. The percentage inhibition caused by the test substance is then 100 - % pigmentation. • * Cell viability assay Melanin production may be reduced by inhibition of melanogenesis but it may also be affected by cytotoxicity or cell proliferation. To test whether this occurred cell viability was tested by neutral red dye absorption. Neutral red is a water soluble dye that passes through the intact plasma membrane and becomes concentrated in the lysosomes in intact cells. Total neutral red dye uptake is proportional to the number of viable cells in culture. Immediately following the removal of medium for melanin analysis from the microtitre wells, 200 µl fresh prewarmed neutral red dye (ex. Sigma, UK, Cat. Nr 2889) at 25 µg/ml medium was applied to the cells and incubated for 3 hours as for cell maintenance. Dye which had not been taken up by the cells was removed by inversion of the plate and tapping on abscrbent paper. The cells were washed with 200 µl PBS, which was then removed again. 100 µl solvent (50% H2O, 49% ethanol, 1% acetic acid) was added. After 20 minutes at ambient temperature each plate was shaken for 5 seconds on a microtitre plate shaker. The absorption was measured as described above.

Data set [5] can be described thus: Cell viability assay by neutral red dye absorption in the pigmentation assay. The class given is cell-based. Particulars: mouse, b16-f1 cells, n=4, read-out: Neutral Red Cell Viability % Control. The protocol: as §2
Data set [6] has as its system Keratinocytes. The data set can be described thus: Keratinocyte viability by neutral red uptake after the PGE2 assay. The following applies: 24 hours, at the concentrations tested (0.1 and 1 µM). The class given is cell-based. The protocol: as §1
The cells were then tested for viability by the neutral red up-take method described in example 2 above.

A further data set deals with procollagen-I. As to the kind of experiment: Immunohistochemical analysis of forearm skin biopsies after topical treatment: procollagen-I expression. The class given is in vivo, human. Particulars: compared with placebo forearm. An excerpt:
(§3) Two groups of women were recruited with identical or nearly identical degrees of mild to moderate photodamage on each outer forearm. They were supplied with 0.05% retinoic acid in a moisturising base (Retinova®) and also with a colour matched moisturising cream with similar sensory characteristics (Dermacare® lotion), but no active ingredients, as a placebo control. Each participant of the two groups applied the Retinova® to one outer forearm and placebo (Dermacare®) to the other outer forearm. Group 1 applied the products daily to their outer forearms for 14 weeks and the Group 2 applied the products to their outer forearms for 28 weeks. At the end of the studies two full thickness 4mm punch biopsies were taken from the treated areas of each forearm. Immunohistochemical analysis of the biopsy tissue taken from the participants was performed to identify the effect of retinoic acid treatment on the expression of the skin extracellular matrix components, decorin and procollagen-I, as compared with the placebo treated forearms. The following procedure was followed:
(§4) Antibody dilution buffer for wax sections was composed of Tris Buffered Saline (TBS), 3% bovine serum albumin (BSA), 0.05% Triton X-100 and 0.05% sodium azide. […]

The next data set deals with decorin. The data set can be described thus: Immunohistochemical analysis of forearm skin biopsies after topical treatment: decorin expression. The class given is in vivo, human. The following applies: compared with placebo forearm.
Excerpt: as §3, §4

The mark [7] stands for this setting: Group 1 after 14 weeks, 16 participants, 0.05% retinoic acid (Retinova®) daily on outer forearm.
Setting [8] is: Group 2 after 28 weeks, 15 participants, 0.05% retinoic acid (Retinova®) on outer forearm.

Structures are written as SMILES. Read-outs that look alike come from different tables or passages of the source.

The text below walks through data of patent publication EP1061896B1, “COSMETIC METHOD OF TREATING SKIN” (UNILEVER PLC, priority 1998, dated 1999).

As for `CCCCCCCCCCCCCC(=O)O[C@@H]1[C@@H](C)[C@@]2(O)[C@@H](C=C(CO)C[C@]3(O)C(=O)C(C)=C[C@@H]23)[C@@H]2C(C)(C)[C@]12OC(C)=O` [PMA, phorbal myristate acetate, reference compound], the PGE2 with PGE2 [1] (PMA (10nM) alone, Control 32±6) was determined as 2371 ± 241 pg/mL.
A word on the viability: it is a read-out of living cells in per cent, often relative to untreated cells. With `CCCCCCCCCCC/C=C\CCCCC(=O)O` [Petroselinic Acid, Petroselinic acid], the results for the “Keratinocyte viability % of control Mean” value with Keratinocytes [2] (SDS 2 µg/ml + PA 0.1 µM), in the data set with Keratinocytes [2] (SDS 2 µg/ml + PA 1.0 µM) and in the data set with Keratinocytes [2] (SDS 2 µg/ml + PA 10 µM) were 94.5 % of control, 84.1 % of control and 85.8 % of control, respectively. The “Keratinocyte PGE2 Levels Mean” value with PGE2 [3] (PA 0.1 µM) turned out to be 150.1 pg/well; in the data set with PGE2 [3] (PA 1 µM), 117.8 pg/well. For the same compound, the PGE2 stood at 500 ± 12 pg/mL in the data set with PGE2 [1] (PMA (10nM) + PA 0.1uM), 486 ± 93 pg/mL in the data set with PGE2 [1] (PMA (10nM) + PA 1uM), 233 ± 139 pg/mL in the data set with PGE2 [1] (PMA (10nM) + PA 10uM) and 117 ± 39 pg/mL in the data set on PGE2 [1] (PMA (10nM) + PA 100uM). Further, in data set [4] (0.01%), the activity at 0.01 % came to 79.5%. Also, in data set [4] (0.013%), the activity at 0.013 % was 40.4%. The activity at 0.02 % in data set [4] (0.02%) is 55.3%. In addition, the activity at 0.04 % in data set [4] (0.04%) was 3.9%. In addition, the activity at 0.1 % in data set [4] (0.1%) was 19.3%. The viability at 72 h in data set [5] (0.01%) turned out to be 105%; in data set [5] (0.013%) it was 105%; in data set [5] (0.02%), 103%; in data set [5] (0.04%), 69.9%; in data set [5] (0.1%) it was 1%. The Cell viability entry with Keratinocytes [6] is “not found to be adversely effected”.
On to `CC1=C(/C=C/C(C)=C/C=C/C(C)=C/C(=O)O)C(C)(C)CCC1` [Retinoic Acid, retinoic acid], for which the figures for the “No. of Participants showing marked increase in expression of procollagen-I” value with procollagen-I (setting [7]) and in the data set on procollagen-I (setting [8]) were 9 and 10, respectively. The results for the “No. of Participants showing marked increase in expression of decorin” value with decorin (setting [7]) and with decorin (setting [8]) were 10 and 15, respectively.
On to `CCCCCCCCCCCCOS(=O)(=O)[O-].[Na+]` [SDS, sodium dodecyl sulphate, reference compound], for which, in the data set with Keratinocytes [2] (SDS 2 µg/ml alone (PA 0 µM)), the “Keratinocyte viability % of control Mean” value was 55.8 % of control.
